Assay results as given in ChEMBL document CHEMBL1201862, “PubChem BioAssay data set” (2004).
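Briefly, cells in 96-well plates were exposed to five compound concentrations for 48 h, and endpoints were estimated by linear interpolation. At the GI50, growth is halved.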 The source made the active and inactive calls. No stated cut-off is given here; in the data, active = GI50 up to about 1.1 µM and inactive = higher.

How the values were obtained:
Experiment in all cases: DTP human tumour cell line panel, 48 h
SN12C = test system: SN12C
SF-539 = test system: SF-539
OVCAR-5 = test system: OVCAR-5
UO-31 = test system: UO-31
UACC-257 = test system: UACC-257
HOP-92 = test system: HOP-92
NCI-H460 = test system: NCI-H460
786-0 = test system: 786-0
NCI-H226 = test system: NCI-H226
LOX IMVI = test system: LOX IMVI
NCI-H23 = test system: NCI-H23
SF-268 = test system: SF-268
K562 = test system: K562
HCT-15 = test system: HCT-15
HCT-116 = test system: HCT-116
OVCAR-3 = test system: OVCAR-3
Hs-578T = test system: Hs-578T
SNB-75 = test system: SNB-75
SR = test system: SR
A498 = test system: A498
OVCAR-4 = test system: OVCAR-4
HCC 2998 = test system: HCC 2998
EKVX = test system: EKVX
MCF7 = test system: MCF7
NCI-H522 = test system: NCI-H522
MDA-N = test system: MDA-N
MOLT-4 = test system: MOLT-4
HT-29 = test system: HT-29
CAKI-1 = test system: CAKI-1
COLO 205 = test system: COLO 205
MDA-MB-435 = test system: MDA-MB-435
SK-MEL-5 = test system: SK-MEL-5
Malme-3M = test system: Malme-3M
SW-620 = test system: SW-620
IGROV-1 = test system: IGROV-1
ACHN = test system: ACHN
U-251 = test system: U-251
RXF 393 = test system: RXF 393
NCI/ADR-RES = test system: NCI/ADR-RES
TK-10 = test system: TK-10
DU-145 = test system: DU-145
A549 = test system: A549
SK-MEL-28 = test system: SK-MEL-28
HL-60 = test system: HL-60
KM12 = test system: KM12
MDA-MB-231 = test system: MDA-MB-231
M14 = test system: M14
HOP-62 = test system: HOP-62
SNB-19 = test system: SNB-19
SK-MEL-2 = test system: SK-MEL-2
PC-3 = test system: PC-3
UACC-62 = test system: UACC-62
OVCAR-8 = test system: OVCAR-8
SK-OV-3 = test system: SK-OV-3
SF-295 = test system: SF-295
BT-549 = test system: BT-549
RPMI-8226 = test system: RPMI-8226
T47D = test system: T47D
CCRF-CEM = test system: CCRF-CEM

## Cc1cc(C(=O)CSC(=S)SC(C)(C)C)ccc1Cl
SN12C
  GI50: 18.2 µM (inactive)
SF-539
  GI50: 18.7 µM (inactive)
OVCAR-5
  GI50: 21.9 µM (inactive)
UO-31
  GI50: 18.1 µM (inactive)
UACC-257
  GI50: 18.2 µM (inactive)
HOP-92
  GI50: 24.8 µM (inactive)
NCI-H460
  GI50: 14.7 µM (inactive)
786-0
  GI50: 22.3 µM (inactive)
NCI-H226
  GI50: 27 µM (inactive)
LOX IMVI
  GI50: 19.9 µM (inactive)
NCI-H23
  GI50: 29.5 µM (inactive)
SF-268
  GI50: 18.2 µM (inactive)
K562
  GI50: 31.2 µM (inactive)
HCT-15
  GI50: 22.3 µM
HCT-116
  GI50: 18.7 µM (inactive)
OVCAR-3
  GI50: 16.4 µM (inactive)
Hs-578T
  GI50: 25.5 µM (inactive)
SNB-75
  GI50: 18.2 µM (inactive)
SR
  GI50: 16.9 µM (inactive)
A498
  GI50: 16.3 µM (inactive)
OVCAR-4
  GI50: 31 µM (inactive)
HCC 2998
  GI50: 16.7 µM (inactive)
EKVX
  GI50: 24.5 µM (inactive)
MCF7
  GI50: 25.6 µM (inactive)
NCI-H522
  GI50: 14.7 µM (inactive)
MDA-N
  GI50: 15.8 µM (inactive)
MOLT-4
  GI50: 13.8 µM (inactive)
HT-29
  GI50: 25.1 µM (inactive)
CAKI-1
  GI50: 34.2 µM (inactive)
COLO 205
  GI50: 18.4 µM (inactive)
MDA-MB-435
  GI50: 23.7 µM (inactive)
SK-MEL-5
  GI50: 17.8 µM (inactive)
Malme-3M
  GI50: 16.8 µM (inactive)
SW-620
  GI50: 23.2 µM (inactive)
IGROV-1
  GI50: 33.1 µM (inactive)
ACHN
  GI50: 25 µM (inactive)
U-251
  GI50: 15.1 µM (inactive)
RXF 393
  GI50: 13.4 µM (inactive)
NCI/ADR-RES
  GI50: 19.8 µM (inactive)
TK-10
  GI50: 25.2 µM (inactive)
DU-145
  GI50: 26.5 µM (inactive)
A549
  GI50: 20.9 µM (inactive)
SK-MEL-28
  GI50: 19.8 µM (inactive)
HL-60
  GI50: 18.4 µM (inactive)
KM12
  GI50: 20 µM (inactive)
MDA-MB-231
  GI50: 19.7 µM (inactive)
M14
  GI50: 16.4 µM (inactive)
HOP-62
  GI50: 17.4 µM (inactive)
SNB-19
  GI50: 16 µM (inactive)
SK-MEL-2
  GI50: 19.9 µM (inactive)
PC-3
  GI50: 29.8 µM (inactive)
UACC-62
  GI50: 16.1 µM (inactive)
OVCAR-8
  GI50: 32.1 µM (inactive)
SK-OV-3
  GI50: 34.1 µM (inactive)
SF-295
  GI50: 17.7 µM (inactive)
BT-549
  GI50: 21.9 µM (inactive)
RPMI-8226
  GI50: 21.9 µM (inactive)

## COc1cc(C2c3cc4c(cc3C(=O)C3CCC(=O)N32)OCO4)cc(OC)c1O (stereo unspecified)
SN12C
  GI50: > 50 µM (inactive)
SF-539
  GI50: > 50 µM (inactive)
OVCAR-5
  GI50: > 50 µM (inactive)
UO-31
  GI50: > 50 µM (inactive)
UACC-257
  GI50: > 50 µM (inactive)
HOP-92
  GI50: > 50 µM (inactive)
NCI-H460
  GI50: > 50 µM (inactive)
786-0
  GI50: > 50 µM (inactive)
NCI-H226
  GI50: > 50 µM (inactive)
NCI-H23
  GI50: > 50 µM (inactive)
K562
  GI50: > 50 µM (inactive)
HCT-15
  GI50: > 50 µM
HCT-116
  GI50: > 50 µM (inactive)
OVCAR-3
  GI50: > 50 µM (inactive)
SNB-75
  GI50: > 50 µM (inactive)
SR
  GI50: > 50 µM (inactive)
A498
  GI50: > 50 µM (inactive)
OVCAR-4
  GI50: > 50 µM (inactive)
EKVX
  GI50: > 50 µM (inactive)
MCF7
  GI50: > 50 µM (inactive)
MDA-N
  GI50: > 50 µM (inactive)
MOLT-4
  GI50: > 50 µM (inactive)
HT-29
  GI50: > 50 µM (inactive)
COLO 205
  GI50: > 50 µM (inactive)
MDA-MB-435
  GI50: > 50 µM (inactive)
T47D
  GI50: > 50 µM (inactive)
SW-620
  GI50: > 50 µM (inactive)
IGROV-1
  GI50: > 50 µM (inactive)
ACHN
  GI50: > 50 µM (inactive)
U-251
  GI50: > 50 µM (inactive)
RXF 393
  GI50: > 50 µM (inactive)
NCI/ADR-RES
  GI50: > 50 µM (inactive)
DU-145
  GI50: > 50 µM (inactive)
A549
  GI50: > 50 µM (inactive)
SK-MEL-28
  GI50: > 50 µM (inactive)
HL-60
  GI50: > 50 µM (inactive)
KM12
  GI50: > 50 µM (inactive)
M14
  GI50: > 50 µM (inactive)
HOP-62
  GI50: > 50 µM (inactive)
SNB-19
  GI50: > 50 µM (inactive)
CCRF-CEM
  GI50: > 50 µM (inactive)
SK-MEL-2
  GI50: > 50 µM (inactive)
PC-3
  GI50: > 50 µM (inactive)
UACC-62
  GI50: > 50 µM (inactive)
OVCAR-8
  GI50: > 50 µM (inactive)
SK-OV-3
  GI50: > 50 µM (inactive)
SF-295
  GI50: > 50 µM (inactive)
BT-549
  GI50: > 50 µM (inactive)
RPMI-8226
  GI50: > 50 µM (inactive)

## O=c1[nH]nc(-c2cccc([N+](=O)[O-])c2)[nH]1
SN12C
  GI50: > 100 µM (inactive)
SF-539
  GI50: > 100 µM (inactive)
OVCAR-5
  GI50: > 100 µM (inactive)
UO-31
  GI50: 70.3 µM (inactive)
UACC-257
  GI50: > 100 µM (inactive)
NCI-H460
  GI50: > 100 µM (inactive)
786-0
  GI50: > 100 µM (inactive)
NCI-H226
  GI50: > 100 µM (inactive)
LOX IMVI
  GI50: > 100 µM (inactive)
NCI-H23
  GI50: > 100 µM (inactive)
SF-268
  GI50: > 100 µM (inactive)
K562
  GI50: > 100 µM (inactive)
HCT-15
  GI50: > 100 µM
HCT-116
  GI50: > 100 µM (inactive)
OVCAR-3
  GI50: > 100 µM (inactive)
Hs-578T
  GI50: 47.3 µM (inactive)
SNB-75
  GI50: > 100 µM (inactive)
SR
  GI50: > 100 µM (inactive)
A498
  GI50: > 100 µM (inactive)
OVCAR-4
  GI50: > 100 µM (inactive)
HCC 2998
  GI50: > 100 µM (inactive)
EKVX
  GI50: 8.34 µM (inactive)
MCF7
  GI50: > 100 µM (inactive)
NCI-H522
  GI50: > 100 µM (inactive)
MDA-N
  GI50: > 100 µM (inactive)
MOLT-4
  GI50: > 100 µM (inactive)
HT-29
  GI50: > 100 µM (inactive)
CAKI-1
  GI50: > 100 µM (inactive)
COLO 205
  GI50: > 100 µM (inactive)
MDA-MB-435
  GI50: > 100 µM (inactive)
T47D
  GI50: > 100 µM (inactive)
Malme-3M
  GI50: > 100 µM (inactive)
SW-620
  GI50: > 100 µM (inactive)
IGROV-1
  GI50: > 100 µM (inactive)
ACHN
  GI50: > 100 µM (inactive)
U-251
  GI50: > 100 µM (inactive)
RXF 393
  GI50: > 100 µM (inactive)
NCI/ADR-RES
  GI50: > 100 µM (inactive)
TK-10
  GI50: > 100 µM (inactive)
DU-145
  GI50: > 100 µM (inactive)
A549
  GI50: > 100 µM (inactive)
SK-MEL-28
  GI50: > 100 µM (inactive)
HL-60
  GI50: > 100 µM (inactive)
KM12
  GI50: > 100 µM (inactive)
M14
  GI50: > 100 µM (inactive)
HOP-62
  GI50: > 100 µM (inactive)
SNB-19
  GI50: > 100 µM (inactive)
CCRF-CEM
  GI50: > 100 µM (inactive)
SK-MEL-2
  GI50: > 100 µM (inactive)
PC-3
  GI50: > 100 µM (inactive)
UACC-62
  GI50: > 100 µM (inactive)
OVCAR-8
  GI50: > 100 µM (inactive)
SF-295
  GI50: > 100 µM (inactive)
BT-549
  GI50: > 100 µM (inactive)
RPMI-8226
  GI50: > 100 µM (inactive)
